Laboratory results published in US8148373B2, “Compounds” (AstraZeneca AB, priority 2008, dated 2012).
Counter-ions that a name gives are not always drawn.

Tests used:
[1] = molecular target: T1, human muscarinic acetylcholine M3 receptor (M3-ACh) (Homo sapiens, UniProt P20309); assay: Muscarinic 3 Receptor Binding Assay ([3H]NMS competition, SPA); conditions: [3H]NMS 0.1 nM, CHO-K1 cell membranes, 16 hours at room temperature; read-out: M3 pIC50 (converted)
T1 construct: expressed in transfected cells; host or cells: CHO-K1 (Chinese Hamster Ovary) cell membranes
T1 sequence (P20309 whole entry): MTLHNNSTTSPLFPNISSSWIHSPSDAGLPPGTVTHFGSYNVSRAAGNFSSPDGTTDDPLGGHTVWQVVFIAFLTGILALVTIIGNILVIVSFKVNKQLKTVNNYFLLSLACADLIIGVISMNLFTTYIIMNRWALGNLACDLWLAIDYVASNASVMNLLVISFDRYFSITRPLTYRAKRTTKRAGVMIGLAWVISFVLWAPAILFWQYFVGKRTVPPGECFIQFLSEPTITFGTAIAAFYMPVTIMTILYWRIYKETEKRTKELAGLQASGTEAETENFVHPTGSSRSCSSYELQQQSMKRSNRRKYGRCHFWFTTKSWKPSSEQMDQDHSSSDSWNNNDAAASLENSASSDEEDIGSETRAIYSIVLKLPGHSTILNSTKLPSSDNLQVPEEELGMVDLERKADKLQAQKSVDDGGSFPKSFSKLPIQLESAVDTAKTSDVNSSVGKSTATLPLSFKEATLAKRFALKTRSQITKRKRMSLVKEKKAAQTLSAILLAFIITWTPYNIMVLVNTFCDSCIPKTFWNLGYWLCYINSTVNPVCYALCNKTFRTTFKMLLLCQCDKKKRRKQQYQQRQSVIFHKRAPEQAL
Method: Muscarinic 3 Receptor Binding Assay
The affinity (pIC50) of compounds binding to the M3 receptor is determined by competition binding of [^3H]N-methyl scopolamine (NMS) to CHO-K1 (Chinese Hamster Ovary) cell membranes expressing the human muscarinic acetylcholine M3 receptor (M3-ACh) in a scintillation proximity assay (SPA) format.
SPA beads are precoated with membranes and then incubated at 2 mg of beads per well with serial dilutions of compounds of the invention, [^3H]NMS at 0.1 nM, quarter Kd (experimentally determined dissociation constant) and assay buffer (20 mM HEPES pH 7.4 containing 5 mM MgCl2). The assay is conducted in a final volume of 200 μL, in the presence of 1% (v/v) dimethyl sulphoxide (DMSO). Total binding of [^3H]NMS is determined in the absence of competing compound and non-specific binding of [^3H]NMS is determined in the presence of 1 μM atropine. The plates are incubated for 16 hours at room temperature and then read on Wallac Microbeta™ using a normalised ^3H protocol. The pIC50, defined as the negative logarithm of the molar concentration of compound required for 50% reduction in specific [^3H]-NMS binding, is determined.

[2] = molecular target: T2, Adrenergic β2 (H292 cells) (Homo sapiens, UniProt P07550); assay: Assay for Adrenergic β2 Mediated cAMP Production (concentration response, AlphaScreen cAMP detection); type: cell-based; conditions: for EC50: cAMP production, 60 minutes at room temperature, 300 μM rolipram, read-out: β2 pEC50 (converted); for β2 Intrinsic activity: fraction relative to the maximum activity determined for formoterol
T2 construct: endogenous in cells; host or cells: H292 cells
T2 sequence (P07550 whole entry): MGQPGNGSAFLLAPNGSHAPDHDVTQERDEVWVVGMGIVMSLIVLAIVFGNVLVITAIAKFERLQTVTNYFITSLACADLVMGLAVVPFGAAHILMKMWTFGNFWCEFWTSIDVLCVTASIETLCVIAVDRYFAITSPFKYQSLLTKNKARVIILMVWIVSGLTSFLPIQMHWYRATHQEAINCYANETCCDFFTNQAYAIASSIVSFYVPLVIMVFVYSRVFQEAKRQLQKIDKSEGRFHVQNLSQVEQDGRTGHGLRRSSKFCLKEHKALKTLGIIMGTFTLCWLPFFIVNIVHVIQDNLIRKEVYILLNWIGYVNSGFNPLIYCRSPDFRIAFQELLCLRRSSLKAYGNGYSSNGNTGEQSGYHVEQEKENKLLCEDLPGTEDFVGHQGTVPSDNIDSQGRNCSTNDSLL
Method: Assay for Adrenergic β2 Mediated Camp Production
H292 cells are grown in 225 cm2 flasks incubator at 37° C., 5% CO2 in RPMI medium containing 10% (v/v) FBS (foetal bovine serum) and 2 mM L-glutamine.
Adherent H292 cells are removed from tissue culture flasks by treatment with Accutase™ cell detachment solution for 15 minutes. Flasks are incubated for 15 minutes in a humidified incubator at 37° C., 5% CO2. Detached cells are re-suspended in RPMI media (containing 10% (v/v) FBS and 2 mM L-glutamine) at 0.1×10^6 cells per mL. 10000 cells in 100 μL are added to each well of a tissue-culture-treated 96-well plate and the cells incubated overnight in a humidified incubator at 37° C., 5% CO2. The culture media is removed and cells are washed twice with 100 μL assay buffer and replaced with 50 μL assay buffer (HBSS solution containing 10 mM HEPES pH7.4 and 5 mM glucose). Cells are rested at room temperature for 20 minutes after which time 25 μL of rolipram (1.2 mM made up in assay buffer containing 2.4% (v/v) dimethylsulphoxide) is added. Cells are incubated with rolipram for 10 minutes after which time test compounds are added and the cells are incubated for 60 minutes at room temperature. The final rolipram concentration in the assay is 300 μM and final vehicle concentration is 1% (v/v) dimethylsulphoxide. The reaction is stopped by removing supernatants, washing once with 100 μL assay buffer and replacing with 50 μL lysis buffer. The cell monolayer is frozen at −80° C. for 30 minutes (or overnight).
AlphaScreen™ cAMP Detection
The concentration of cAMP (cyclic adenosine monophosphate) in the cell lysate is determined using AlphaScreen™ methodology. The frozen cell plate is thawed for 20 minutes on a plate shaker then 10 μL of the cell lysate is transferred to a 96-well white plate. 40 μL of mixed AlphaScreen™ detection beads pre-incubated with biotinylated cAMP, is added to each well and the plate incubated at room temperature for 3 hours in the dark. The AlphaScreen™ signal is measured using an EnVision spectrophotometer (Perkin-Elmer Inc.) with the recommended manufacturer's settings. cAMP concentrations are determined by reference to a calibration curve determined in the same experiment using standard cAMP concentrations. Concentration response curves for agonists are constructed and data is fitted to a four parameter logistic equation to determine both the pEC50 and Intrinsic Activity. Intrinsic Activity is expressed as a fraction relative to the maximum activity determined for formoterol in each experiment.

IC50 [1] [nM] | EC50 [2] [nM] | β2 Intrinsic activity [2] | Structure (SMILES)
3.98 | 5.01 | 1 | Cc1csc(C(=O)N2CCOC3(CCN(Cc4cc(F)cc(CCNC[C@H](O)c5ccc(O)c6[nH]c(=O)sc56)c4)CC3)C2)c1 [Example 60, (R)-7-(2-(3-Fluoro-5-((4-(4-methylthiophene-2-carbonyl)-1-oxa-4,9-diazaspiro[5.5]undecan-9-yl)methyl)phenethylamino)-1-hydroxyethyl)-4-hydroxybenzo[d]thiazol-2(3H)-one ditrifluoroacetate]
6.31 | 5.01 | 0.9 | Cc1nc(C(=O)N2CCOC3(CCN(Cc4ccc(CCNC[C@H](O)c5ccc(O)c6[nH]c(=O)ccc56)s4)CC3)C2)cs1 [Example 14, (R)-8-Hydroxy-5-(1-hydroxy-2-(2-(5-((4-(2-methylthiazole-4-carbonyl)-1-oxa-4,9-diazaspiro[5.5]undecan-9-yl)methyl)thiophen-2-yl)ethylamino)ethyl)quinolin-2(1H)-one ditrifluoroacetate]
39.8 | 7.94 | 0.9 | Cc1nc2cc(C(=O)N3CCOC4(CCN(Cc5cc(CCNC[C@H](O)c6ccc(O)c7[nH]c(=O)sc67)cs5)CC4)C3)ccc2s1 [Example 49, (R)-4-Hydroxy-7-(1-hydroxy-2-(2-(5-((4-(2-methylbenzo[d]thiazole-5-carbonyl)-1-oxa-4,9-diazaspiro[5.5]undecan-9-yl)methyl)thiophen-3-yl)ethylamino)ethyl)benzo[d]thiazol-2(3H)-one ditrifluoroacetate]
5.01 | 6.31 | 0.8 | CC(C)c1nc(C(=O)N2CCOC3(CCN(Cc4cccc(CCNC[C@H](O)c5ccc(O)c6[nH]c(=O)sc56)c4Cl)CC3)C2)cs1 [Example 80, (R)-7-(2-(2-Chloro-3-((4-(2-isopropylthiazole-4-carbonyl)-1-oxa-4,9-diazaspiro[5.5]undecan-9-yl)methyl)phenethylamino)-1-hydroxyethyl)-4-hydroxybenzo[d]thiazol-2(3H)-one ditrifluoroacetate]
2.51 | 7.94 | 1 | CCCc1nc(C(=O)N2CCOC3(CCN(Cc4cc(F)cc(CCNC[C@H](O)c5ccc(O)c6[nH]c(=O)sc56)c4)CC3)C2)cs1 [Example 56, (R)-7-(2-(3-Fluoro-5-((4-(2-propylthiazole-4-carbonyl)-1-oxa-4,9-diazaspiro[5.5]undecan-9-yl)methyl)phenethylamino)-1-hydroxyethyl)-4-hydroxybenzo[d]thiazol-2(3H)-one ditrifluoroacetate]
0.0794 | 39.8 | 0.8 | Cc1nc(C(=O)N2CCOC3(CCN(Cc4cccc(CCNCC(O)c5ccc(O)c6c5OCC(=O)N6)c4)CC3)C2)cs1 (single isomer, unassigned; isomer 2) [Example 13, 5-Hydroxy-8-(1-hydroxy-2-(3-((4-(2-methylthiazole-4-carbonyl)-1-oxa-4,9-diazaspiro[5.5]undecan-9-yl)methyl)phenethylamino)ethyl)-2H-benzo[b][1,4]oxazin-3(4H)-one ditrifluoroacetate, Isomer 2]
6.31 | 31.6 | 1.1 | CC(C)c1nc(C(=O)N2CCOC3(CCN(CCOc4ccc(CCNC[C@H](O)c5ccc(O)c6[nH]c(=O)sc56)c(F)c4F)CC3)C2)cs1 [Example 269, (R)-7-(2-(2,3-Difluoro-4-(2-(4-(2-isopropylthiazole-4-carbonyl)-1-oxa-4,9-diazaspiro[5.5]undecan-9-yl)ethoxy)phenethylamino)-1-hydroxyethyl)-4-hydroxybenzo[d]thiazol-2(3H)-one ditrifluoroacetate]
2 | 12.6 | 0.9 | CC(C)c1cc(C(=O)N2CCOC3(CCN(CCCCCCCNC[C@H](O)c4ccc(O)c5[nH]c(=O)sc45)CC3)C2)cs1 [Example 284, (R)-4-Hydroxy-7-(1-hydroxy-2-(7-(4-(5-isopropylthiophene-3-carbonyl)-1-oxa-4,9-diazaspiro[5.5]undecan-9-yl)heptylamino)ethyl)benzo[d]thiazol-2(3H)-one formate]
1.58 | 10 | 1 | CC(C)c1ccc(C(=O)N2CCOC3(CCN(Cc4cccc(CCNC[C@H](O)c5ccc(O)c6[nH]c(=O)sc56)c4)CC3)C2)s1 [Example 268, (R)-4-Hydroxy-7-(1-hydroxy-2-(3-((4-(5-isopropylthiophene-2-carbonyl)-1-oxa-4,9-diazaspiro[5.5]undecan-9-yl)methyl)phenethylamino)ethyl)benzo[d]thiazol-2(3H)-one ditrifluoroacetate]
15.8 | 2.51 | 0.9 | COC(=O)c1ccc(C(=O)N2CCOC3(CCN(Cc4cccc(CCNC[C@H](O)c5ccc(O)c6[nH]c(=O)sc56)c4)CC3)C2)s1 [Example 30, (R)-methyl 5-(9-(3-(2-(2-hydroxy-2-(4-hydroxy-2-oxo-2,3-dihydrobenzo[d]thiazol-7-yl)ethylamino)ethyl)benzyl)-1-oxa-4,9-diazaspiro[5.5]undecane-4-carbonyl)thiophene-2-carboxylate ditrifluoroacetate]
6.31 | 39.8 | 0.9 | O=C(c1nc2ccccc2s1)N1CCOC2(CCN(CCCCCCCCCNC[C@H](O)c3ccc(O)c4[nH]c(=O)sc34)CC2)C1 [Example 107, (R)-7-(2-(9-(4-(Benzo[d]thiazole-2-carbonyl)-1-oxa-4,9-diazaspiro[5.5]undecan-9-yl)nonylamino)-1-hydroxyethyl)-4-hydroxybenzo[d]thiazol-2(3H)-one formate]
2 | 12.6 | 1 | CC(C)c1nc(C(=O)N2CCOC3(CCN(Cc4cccc(CCCNC[C@H](O)c5ccc(O)c6[nH]c(=O)sc56)c4F)CC3)C2)cs1 [Example 88, (R)-7-(2-(3-(2-Fluoro-3-((4-(2-isopropylthiazole-4-carbonyl)-1-oxa-4,9-diazaspiro[5.5]undecan-9-yl)methyl)phenyl)propylamino)-1-hydroxyethyl)-4-hydroxybenzo[d]thiazol-2(3H)-one ditrifluoroacetate]
20 | 63.1 | 0.8 | Cc1ccc(C(=O)N2CCOC3(CCN(CCOc4ccc(CNC[C@H](O)c5ccc(O)c6[nH]c(=O)sc56)cc4)CC3)C2)s1 [Example 110, (R)-4-Hydroxy-7-(1-hydroxy-2-(4-(2-(4-(5-methylthiophene-2-carbonyl)-1-oxa-4,9-diazaspiro[5.5]undecan-9-yl)ethoxy)benzylamino)ethyl)benzo[d]thiazol-2(3H)-one formate]
0.794 | 6.31 | 1.1 | O=C(c1csc(C2CC2)n1)N1CCOC2(CCN(Cc3cc(F)cc(CCNC[C@H](O)c4ccc(O)c5[nH]c(=O)sc45)c3)CC2)C1 [Example 57, (R)-7-(2-(3-((4-(2-Cyclopropylthiazole-4-carbonyl)-1-oxa-4,9-diazaspiro[5.5]undecan-9-yl)methyl)-5-fluorophenethylamino)-1-hydroxyethyl)-4-hydroxybenzo[d]thiazol-2(3H)-one ditrifluoroacetate]
